Data as given in patent US10717716B2, “1,3,4-oxadiazole derivative compounds as histone deacetylase 6 inhibitor, and the pharmaceutical composition comprising the same” (Chong Kun Dang Pharmaceutical Corp., priority 2015, dated 2020).

Target: T1, human recombinant HDAC6 (Homo sapiens, UniProt Q9UBN7)
T1 construct: purchased Calbiochem 382180
T1 sequence (Q9UBN7 1-1215): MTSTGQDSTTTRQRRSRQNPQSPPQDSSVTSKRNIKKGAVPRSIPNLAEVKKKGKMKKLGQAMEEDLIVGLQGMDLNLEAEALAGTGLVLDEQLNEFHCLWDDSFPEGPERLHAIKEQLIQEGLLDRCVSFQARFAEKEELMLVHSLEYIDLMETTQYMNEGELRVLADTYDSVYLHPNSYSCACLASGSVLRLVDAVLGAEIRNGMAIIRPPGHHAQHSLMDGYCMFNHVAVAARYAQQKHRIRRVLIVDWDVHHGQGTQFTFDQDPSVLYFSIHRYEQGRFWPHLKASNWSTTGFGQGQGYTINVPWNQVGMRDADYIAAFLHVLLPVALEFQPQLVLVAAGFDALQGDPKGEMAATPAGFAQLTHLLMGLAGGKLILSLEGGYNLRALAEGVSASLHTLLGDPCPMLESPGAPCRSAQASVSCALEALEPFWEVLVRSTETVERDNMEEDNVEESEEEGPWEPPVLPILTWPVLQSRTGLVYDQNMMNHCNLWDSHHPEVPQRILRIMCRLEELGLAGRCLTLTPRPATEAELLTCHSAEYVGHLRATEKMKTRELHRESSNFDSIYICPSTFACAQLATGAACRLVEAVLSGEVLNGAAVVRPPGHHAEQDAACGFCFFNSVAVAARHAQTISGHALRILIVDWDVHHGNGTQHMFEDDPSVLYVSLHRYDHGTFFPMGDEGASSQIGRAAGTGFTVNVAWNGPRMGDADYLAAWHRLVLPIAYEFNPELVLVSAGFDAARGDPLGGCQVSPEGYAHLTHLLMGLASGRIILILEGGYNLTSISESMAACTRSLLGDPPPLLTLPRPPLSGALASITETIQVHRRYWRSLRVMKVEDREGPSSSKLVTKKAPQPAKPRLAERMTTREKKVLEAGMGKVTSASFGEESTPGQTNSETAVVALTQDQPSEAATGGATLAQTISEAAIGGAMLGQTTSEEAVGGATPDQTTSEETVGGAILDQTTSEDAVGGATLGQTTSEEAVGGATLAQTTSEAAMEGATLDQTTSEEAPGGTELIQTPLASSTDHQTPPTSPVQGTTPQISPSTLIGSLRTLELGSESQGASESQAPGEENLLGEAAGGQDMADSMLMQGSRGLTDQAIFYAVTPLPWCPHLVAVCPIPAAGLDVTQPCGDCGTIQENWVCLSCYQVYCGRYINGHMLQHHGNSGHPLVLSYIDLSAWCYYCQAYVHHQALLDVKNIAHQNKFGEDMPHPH
Test: HDAC6 enzyme activity inhibition assay (HDAC Fluorimetric Drug Discovery Kit)
Type: biochemical
Conditions: for HDAC6 selectivity (fold): HDAC6 over HDAC1; for IC50: human recombinant HDAC6, same protocol as HDAC1, read-out: HDAC6
In short: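 Human recombinant HDAC1 or HDAC6 (0.3 μg) reacted with 10 μM Fluor de Lys-SIRT1 substrate and 5-fold compound dilutions for 60 min at 30 °C. Developer II added for 30 min, fluorescence read at Ex 360/Em 460; IC50 calculated from the readings.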

| Structure (SMILES) | HDAC6 selectivity (fold) | IC50 [µM] |
| --- | --- | --- |
| CCc1ccc(N(Cc2ccc(-c3nnc(C(F)(F)F)o3)cc2F)C(=O)N2CCS(=O)(=O)CC2)cc1 [Compound 21511, N-(4-ethylphenyl)-N-(2-fluoro-4-(5-(trifluoromethyl)-1,3,4-oxadiazol-2-yl)benzyl)thiomorpholine-4-carboxamide 1,1-dioxide] | 30 | 0.332 |
| CCc1ccc(N(Cc2ccc(-c3nnc(C(F)F)o3)cc2F)C(=O)N2CCS(=O)(=O)CC2)cc1 [Compound 21512, N-(4-(5-(difluoromethyl)-1,3,4-oxadiazol-2-yl)-2-fluorobenzyl)-N-(4-ethylphenyl)thiomorpholine-4-carboxamide 1,1-dioxide] | 108 | 0.093 |
| CN1CCN(Cc2ccc(N(Cc3ccc(-c4nnc(C(F)(F)F)o4)cc3F)C(=O)N3CCS(=O)(=O)CC3)cc2)CC1 [Compound 21515, N-(2-fluoro-4-(5-(trifluoromethyl)-1,3,4-oxadiazol-2-yl)benzyl)-N-(4-((4-methylpiperazin-1-yl)methyl)phenyl)thiomorpholine-4-carboxamide 1,1-dioxide] | 115 | 0.087 |
| O=C(N1CCS(=O)(=O)CC1)N(Cc1ccc(-c2nnc(C(F)F)o2)cc1F)c1ccc(-c2ccncc2)cc1 [Compound 21520, N-(4-(5-(difluoromethyl)-1,3,4-oxadiazol-2-yl)-2-fluorobenzyl)-N-(4-(pyridin-4-yl)phenyl)thiomorpholine-4-carboxamide 1,1-dioxide] | 159 | 0.063 |

The remaining compounds from weak to strong by IC50, led by results:

| HDAC6 selectivity (fold) | IC50 [µM] | Structure (SMILES) |
| --- | --- | --- |
| 18 | 0.565 | Cn1ccc2cc(-c3ccc(N(Cc4ccc(-c5nnc(C(F)(F)F)o5)cc4F)C(=O)N4CCS(=O)(=O)CC4)cc3)ccc21 [Compound 21521, N-(2-fluoro-4-(5-(trifluoromethyl)-1,3,4-oxadiazol-2-yl)benzyl)-N-(4-(1-methyl-1H-indol-5-yl)phenyl)thiomorpholine-4-carboxamide 1,1-dioxide] |
| 36 | 0.279 | O=C(N1CCS(=O)(=O)CC1)N(Cc1ccc(-c2nnc(C(F)F)o2)cc1)c1cccc(-c2ccccc2)c1 [Compound 21502, N-([1,1′-biphenyl]-3-yl)-N-(4-(5-(difluoromethyl)-1,3,4-oxadiazol-2-yl)benzyl)thiomorpholine-4-carboxamide 1,1-dioxide] |
| 47 | 0.212 | O=C(N1CCS(=O)(=O)CC1)N(Cc1ccc(-c2nnc(C(F)(F)F)o2)cc1F)c1ccc(OC(F)(F)F)cc1 [Compound 21513, N-(2-fluoro-4-(5-(trifluoromethyl)-1,3,4-oxadiazol-2-yl)benzyl)-N-(4-(trifluoromethoxy)phenyl)thiomorpholine-4-carboxamide 1,1-dioxide] |
| 250 | 0.04 | CN1CCN(Cc2ccc(N(Cc3ccc(-c4nnc(C(F)F)o4)cc3F)C(=O)N3CCS(=O)(=O)CC3)cc2)CC1 [Compound 21516, N-(4-(5-(difluoromethyl)-1,3,4-oxadiazol-2-yl)-2-fluorobenzyl)-N-(4-((4-methylpiperazin-1-yl)methyl)phenyl)thiomorpholine-4-carboxamide 1,1-dioxide] |
| 286 | 0.035 | O=C(N1CCS(=O)(=O)CC1)N(Cc1ccc(-c2nnc(C(F)F)o2)cc1F)c1ccc(OC(F)(F)F)cc1 [Compound 21514, N-(4-(5-(difluoromethyl)-1,3,4-oxadiazol-2-yl)-2-fluorobenzyl)-N-(4-(trifluoromethoxy)phenyl)thiomorpholine-4-carboxamide 1,1-dioxide] |
| 400 | 0.025 | O=C(N1CCS(=O)(=O)CC1)N(Cc1ccc(-c2nnc(C(F)F)o2)cc1F)c1ccc(-c2cccnc2)cc1 [Compound 21518, N-(4-(5-(difluoromethyl)-1,3,4-oxadiazol-2-yl)-2-fluorobenzyl)-N-(4-(pyridin-3-yl)phenyl)thiomorpholine-4-carboxamide 1,1-dioxide] |
